Key:
Assay type in all cases: in vivo
[1] = test system: Echinochloa crus-galli; assay: Test Example 4: herbicidal effect test by stem and leaf treatment in upland field; conditions: 120 g per 10 ares, sprayed seven days after sowing, upland soil, 14 days after application; for inhibition at 1200 g/ha: Echinochloa crus-galli, read-out: weed inhibition rate
[2] = test system: Echinochloa crus-galli var. formosensis; assay: Test Example 2: herbicidal effect test by application during growth period of paddy rice; conditions: 120 g per 10 ares, applied seven days after sowing, flooded pots, 14 days after application; for inhibition at 1200 g/ha: Echinochloa crus-galli, read-out: weed inhibition rate
Protocol: (§1) The present test was conducted in duplicate for each chemical concentration group, and the weed inhibition rate (%) was determined 14 days after chemical application using the following formula (Math. 1). [formula]
(§2) Wagner pots with an area of […] were filled with paddy soil, followed by addition of water and incorporation of chemical fertilizer (N:P:K = 16:16:16), after which puddling was performed. After that, seeds of Echinochloa crus-galli var. formosensis, broad-leaved weeds (Monochoria vaginalis), and Scirpus juncoides were sown at a depth of 0 cm to 1 cm, 30 seeds each. Immediately after sowing, the pots were flooded and a water depth of approximately 3 cm was maintained. Subsequent management was conducted in a glass greenhouse. Seven days after sowing, an emulsifiable concentrate prepared according to Formulation Example 5 using the compound shown below was diluted with water, and a specified amount of the diluted solution was applied by dropper. The amount of the active ingredient to be applied was equivalent to 120 g per 10 ares. The test was conducted in duplicate for each chemical concentration group, and the herbicidal effect was evaluated 14 days after chemical application using the same criteria as in Test Example 1.

[3] = test system: Echinochloa crus-galli; assay: Test Example 3: herbicidal effect test by soil application in upland field; conditions: 120 g per 10 ares, sprayed one day after sowing, 14 days after application; for inhibition at 1200 g/ha: Echinochloa crus-galli, read-out: weed inhibition rate
Protocol: as §1
(§3) Pots with an area of 36 cm^2 were filled with upland soil (alluvial loam), twenty seeds each of weeds of Digitaria ciliaris, Echinochloa crus-galli, Chenopodium album, and Amaranthus viridis were uniformly mixed with the top 1 cm layer of soil and the surface was lightly pressed down. One day after sowing, an emulsifiable concentrate prepared according to Formulation Example 5 using the compound shown below was diluted with water, and the diluted solution was sprayed onto the soil surface at a rate of 100 liters per 10 ares. The amount of the active ingredient to be applied was equivalent to 120 g per 10 ares. Fourteen days after chemical application, the herbicidal effect was evaluated according to the same criteria as in Test Example 1.

[4] = test system: Digitaria ciliaris; assay: as above; conditions: 120 g per 10 ares, sprayed one day after sowing, 14 days after application; for inhibition at 1200 g/ha: Digitaria ciliaris, read-out: weed inhibition rate
Protocol: as §1, §3

[5] = test system: Digitaria ciliaris; assay: Test Example 4: herbicidal effect test by stem and leaf treatment in upland field; conditions: 120 g per 10 ares, sprayed seven days after sowing, upland soil, 14 days after application; for inhibition at 1200 g/ha: Digitaria ciliaris, read-out: weed inhibition rate
Protocol: as §1
as §3, with “crus-galli,” for “crus-galli, Chenopodium album,”, “Seven days” for “One day”

[6] = test system: Echinochloa crus-galli var. formosensis; assay: Test Example 1: herbicidal effect test by soil application in paddy rice; conditions: 120 g active ingredient per 10 ares, applied immediately after sowing, flooded pots, 14 days after application; for pest or weed control at 1200 g/ha: Echinochloa crus-galli, soil, 336 h, read-out: weed inhibition rate
Protocol: as §2, with “([…] Monochoria” for “(Monochoria”, “Immediately thereafter,” for “Seven days after sowing,”, “ares.” for “ares. The test was conducted in duplicate for each chemical concentration group, and the herbicidal effect was evaluated 14 days after chemical application using the same criteria as in Test Example 1.”

Cc1ccccc1CO[C@H]1C[C@@]2(C(C)C)O[C@]1(C)C[C@H]2Br [1-1016, (1R,2S,4S,5R)-5-bromo-1-methyl-2-[(2-methylphenyl)methoxy]-4-isopropyl-7-oxabicyclo[2.2.1]heptane]
≥ 80%: inhibition at 1200 g/ha [1] | inhibition at 1200 g/ha [2] | inhibition at 1200 g/ha [3] | inhibition at 1200 g/ha [4] | inhibition at 1200 g/ha [5] | pest or weed control at 1200 g/ha [6]

COc1ccccc1CO[C@H]1C[C@@]2(C(C)C)O[C@]1(C)C[C@H]2Br [1-1022, (1R,2S,4S,5R)-5-bromo-2-[(2-methoxyphenyl)methoxy]-1-methyl-4-isopropyl-7-oxabicyclo[2.2.1]heptane]
≥ 80%: inhibition at 1200 g/ha [1] | inhibition at 1200 g/ha [2] | inhibition at 1200 g/ha [3] | inhibition at 1200 g/ha [4] | inhibition at 1200 g/ha [5] | pest or weed control at 1200 g/ha [6]

CC(C)[C@@]12C[C@H](OCc3ccccc3Br)[C@@](C)(C[C@H]1Br)O2 [1-1034, (1R,2S,4S,5R)-5-bromo-2-[(2-bromophenyl)methoxy]-1-methyl-4-isopropyl-7-oxabicyclo[2.2.1]heptane]
≥ 80%: inhibition at 1200 g/ha [1] | inhibition at 1200 g/ha [2] | inhibition at 1200 g/ha [3] | inhibition at 1200 g/ha [4] | inhibition at 1200 g/ha [5] | pest or weed control at 1200 g/ha [6]

CC(C)[C@@]12C[C@H](OCc3ccccc3I)[C@@](C)(C[C@H]1Br)O2 [1-1037, (1R,2S,4S,5R)-5-bromo-2-[(2-iodophenyl)methoxy]-1-methyl-4-isopropyl-7-oxabicyclo[2.2.1]heptane]
≥ 80%: inhibition at 1200 g/ha [1] | inhibition at 1200 g/ha [2] | inhibition at 1200 g/ha [3] | inhibition at 1200 g/ha [4] | inhibition at 1200 g/ha [5] | pest or weed control at 1200 g/ha [6]

CC(C)[C@@]12C[C@H](OCc3ccccc3C#N)[C@@](C)(C[C@H]1Br)O2 [1-1043, 2-[[(1R,2S,4S,5R)-5-bromo-1-methyl-4-isopropyl-7-oxabicyclo[2.2.1]heptan-2-yl]oxymethyl]benzonitrile]
≥ 80%: inhibition at 1200 g/ha [1] | inhibition at 1200 g/ha [2] | inhibition at 1200 g/ha [3] | inhibition at 1200 g/ha [4] | inhibition at 1200 g/ha [5] | pest or weed control at 1200 g/ha [6]

CC(C)[C@@]12C[C@H](OCc3c(F)cccc3F)[C@@](C)(C[C@H]1Br)O2 [1-1052, (1R,28,48,5R)-5-bromo-2-[(2,6-difluorophenyl)methoxy]-1-methyl-4-isopropyl-7-oxabicyclo[2.2.1]heptane]
≥ 80%: weed inhibition rate [1] | weed inhibition rate [2] | weed inhibition rate [3] | weed inhibition rate [4] | weed inhibition rate [5] | weed inhibition rate [6]

CC(C)[C@@]12C[C@H](OCc3c(Cl)cccc3Cl)[C@@](C)(C[C@H]1Br)O2 [1-1053, (1R,2S,4S,5R)-5-bromo-2-[(2,6-dichlorophenyl)methoxy]-1-methyl-4-isopropyl-7-oxabicyclo[2.2.1]heptane]
≥ 80%: inhibition at 1200 g/ha [1] | inhibition at 1200 g/ha [2] | inhibition at 1200 g/ha [3] | inhibition at 1200 g/ha [4] | inhibition at 1200 g/ha [5] | pest or weed control at 1200 g/ha [6]

CC(C)[C@@]12C[C@H](OCc3c(F)cccc3Cl)[C@@](C)(C[C@H]1Br)O2 [1-1054, (1R,2S,4S,5R)-5-bromo-2-[(2-chloro-6-fluorophenyl)methoxy]-1-methyl-4-isopropyl-7-oxabicyclo[2.2.1]heptane]
≥ 80%: inhibition at 1200 g/ha [1] | inhibition at 1200 g/ha [2] | inhibition at 1200 g/ha [3] | inhibition at 1200 g/ha [4] | inhibition at 1200 g/ha [5] | pest or weed control at 1200 g/ha [6]

CC(C)[C@@]12C[C@H](OCc3ccccn3)[C@@](C)(C[C@H]1Br)O2 [1-1059, 2-[[(1R,2S,4S,5R)-5-bromo-1-methyl-4-isopropyl-7-oxabicyclo[2.2.1]heptan-2-yl]oxymethyl]pyridine]
≥ 80%: inhibition at 1200 g/ha [1] | inhibition at 1200 g/ha [2] | inhibition at 1200 g/ha [3] | inhibition at 1200 g/ha [4] | inhibition at 1200 g/ha [5] | pest or weed control at 1200 g/ha [6]

CC(C)=CCO[C@H]1C[C@@]2(C(C)C)O[C@]1(C)C[C@H]2I [1-1073, (1R,2S,4S,5R)-5-iodo-1-methyl-2-(3-methylbut-2-enoxy)-4-isopropyl-7-oxabicyclo[2.2.1]heptane]
≥ 80%: inhibition at 1200 g/ha [1] | inhibition at 1200 g/ha [2] | inhibition at 1200 g/ha [3] | inhibition at 1200 g/ha [4] | inhibition at 1200 g/ha [5] | pest or weed control at 1200 g/ha [6]

COc1ccccc1CO[C@H]1C[C@@]2(C(C)C)O[C@]1(C)C[C@H]2I [1-1088, (1R,2S,4S,5R)-5-iodo-2-[(2-methoxyphenyl)methoxy]-1-methyl-4-isopropyl-7-oxabicyclo[2.2.1]heptane]
≥ 80%: inhibition at 1200 g/ha [1] | inhibition at 1200 g/ha [2] | inhibition at 1200 g/ha [3] | inhibition at 1200 g/ha [4] | inhibition at 1200 g/ha [5] | pest or weed control at 1200 g/ha [6]

CC(C)[C@@]12C[C@H](OCc3ccccc3F)[C@@](C)(C[C@H]1I)O2 [1-1094, (1R,2S,4S,5R)-2-[(2-fluorophenyl)methoxy]-5-iodo-1-methyl-4-isopropyl-7-oxabicyclo[2.2.1]heptane]
≥ 80%: inhibition at 1200 g/ha [1] | inhibition at 1200 g/ha [2] | inhibition at 1200 g/ha [3] | inhibition at 1200 g/ha [4] | inhibition at 1200 g/ha [5] | pest or weed control at 1200 g/ha [6]

CC(C)[C@@]12C[C@H](OCc3ccccc3Cl)[C@@](C)(C[C@H]1I)O2 [1-1097, (1R,2S,4S,5R)-2-[(2-chlorophenyl)methoxy]-5-iodo-1-methyl-4-isopropyl-7-oxabicyclo[2.2.1]heptane]
≥ 80%: inhibition at 1200 g/ha [1] | inhibition at 1200 g/ha [2] | inhibition at 1200 g/ha [3] | inhibition at 1200 g/ha [4] | inhibition at 1200 g/ha [5] | pest or weed control at 1200 g/ha [6]

CC(C)[C@@]12C[C@H](OCc3ccccc3C#N)[C@@](C)(C[C@H]1I)O2 [1-1109, 2-[[(1R,2S,4S,5R)-5-iodo-1-methyl-4-isopropyl-7-oxabicyclo[2.2.1]heptan-2-yl]oxymethyl]benzonitrile]
≥ 80%: inhibition at 1200 g/ha [1] | inhibition at 1200 g/ha [2] | inhibition at 1200 g/ha [3] | inhibition at 1200 g/ha [4] | inhibition at 1200 g/ha [5] | pest or weed control at 1200 g/ha [6]
